In PubChem BioAssay AID1963838 (Molecular Pharmacology Branch, DTP, NCI, 2024):

Test system: 855422-203-R-J1-PDC complex spheroid viability
Experiment: Anticancer human tumor 855422-203-R-J1-PDC patient-derived bladder carcinoma cell line growth inhibition [POLQ]
Conditions: for IC50: curve of first compound; for viability, T/C: stronger effect = lower value
Method in brief: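 Patient-derived tumour cells were co-cultured with HUVEC and mesenchymal stem cells as multicellular spheroids at 37 °C. They were treated with POLQ inhibitors (novobiocin, ART-558, RP6685) alone or combined with other agents. Top concentrations were at or near clinical Cmax (otherwise 10 microM; SN-38 at 1 microM), decreasing in half-log steps.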

[1] = second compound 0.0316 µM, first compound 0.0316 µM
[2] = second compound 0.0316 µM, first compound 0.1 µM
[3] = second compound 0.0316 µM, first compound 0.316 µM
[4] = second compound 0.0316 µM, first compound 1 µM
[5] = second compound 0.0316 µM, first compound 3.16 µM
[6] = second compound 0.0316 µM, first compound 10 µM
[7] = second compound 0.1 µM, first compound 0.0316 µM
[8] = second compound 0.1 µM, first compound 0.1 µM
[9] = second compound 0.1 µM, first compound 0.316 µM
[10] = second compound 0.1 µM, first compound 1 µM
[11] = second compound 0.1 µM, first compound 3.16 µM
[12] = second compound 0.1 µM, first compound 10 µM
[13] = second compound 0.316 µM, first compound 0.0316 µM
[14] = second compound 0.316 µM, first compound 0.1 µM
[15] = second compound 0.316 µM, first compound 0.316 µM
[16] = second compound 0.316 µM, first compound 1 µM
[17] = second compound 0.316 µM, first compound 3.16 µM
[18] = second compound 0.316 µM, first compound 10 µM
[19] = second compound 1 µM, first compound 0.0316 µM
[20] = second compound 1 µM, first compound 0.1 µM
[21] = second compound 1 µM, first compound 0.316 µM
[22] = second compound 1 µM, first compound 1 µM
[23] = second compound 1 µM, first compound 3.16 µM
[24] = second compound 1 µM, first compound 10 µM
[25] = second compound 3.16 µM, first compound 0.0316 µM
[26] = second compound 3.16 µM, first compound 0.1 µM
[27] = second compound 3.16 µM, first compound 0.316 µM
[28] = second compound 3.16 µM, first compound 1 µM
[29] = second compound 3.16 µM, first compound 3.16 µM
[30] = second compound 3.16 µM, first compound 10 µM
[31] = second compound 10 µM, first compound 0.0316 µM
[32] = second compound 10 µM, first compound 0.1 µM
[33] = second compound 10 µM, first compound 0.316 µM
[34] = second compound 10 µM, first compound 1 µM
[35] = second compound 10 µM, first compound 3.16 µM
[36] = second compound 10 µM, first compound 10 µM
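Note: spheroids exposed to compounds for seven days before readout.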

With C#Cc1c(F)ccc2cc(O)cc(-c3ncc4c(N5CC6CCC(C5)N6)nc(OCC56CCCN5CC(F)C6)nc4c3F)c12 (stereo not drawn) + COC1C(OC(N)=O)C(O)C(Oc2ccc3c(O)c(NC(=O)c4ccc(O)c(CC=C(C)C)c4)c(=O)oc3c2C)OC1(C)C the IC50 (second compound 0.0316 µM) was greater than 10000 nM, the IC50 (second compound 0.1 µM) was greater than 10000 nM and the IC50 (second compound 0.316 µM) was greater than 10000 nM. It also gave an IC50 (second compound 1 µM) greater than 10000 nM, an IC50 (second compound 3.16 µM) greater than 10000 nM and an IC50 (second compound 10 µM) greater than 10000 nM. The viability, T/C [1] was 102%, the viability, T/C [2] was 105% and the viability, T/C [3] was 96.1%. For the same compound, the viability, T/C [4] was 109%, the viability, T/C [5] was 123% and the viability, T/C [6] was 120%. The viability, T/C [7] was 103%, the viability, T/C [8] was 114% and the viability, T/C [9] was 98.4%. For the same compound, the viability, T/C [10] was 108%, the viability, T/C [11] was 102% and the viability, T/C [12] was 108%. For the same compound, the viability, T/C [13] was 108%, the viability, T/C [14] was 103% and the viability, T/C [15] was 122%. For the same compound, the viability, T/C [16] was 115%, the viability, T/C [17] was 114% and the viability, T/C [18] was 117%. The viability, T/C [19] was 103%, the viability, T/C [20] was 97.3% and the viability, T/C [21] was 117%. The viability, T/C [22] was 115%, the viability, T/C [23] was 120% and the viability, T/C [24] was 111%. For the same compound, the viability, T/C [25] was 107%, the viability, T/C [26] was 109% and the viability, T/C [27] was 123%. For the same compound, the viability, T/C [28] was 111%, the viability, T/C [29] was 96.5% and the viability, T/C [30] was 99.2%. It also gave a viability, T/C [31] of 102%, a viability, T/C [32] of 104% and a viability, T/C [33] of 108%. For the same compound, the viability, T/C [34] was 117%, the viability, T/C [35] was 112% and the viability, T/C [36] was 115%.
Compound CC1COCCN1c1cc(C2(O)CC3CCC(C2)O3)c2cnn(-c3ccn[nH]3)c2n1 (stereo not drawn) + COC1C(OC(N)=O)C(O)C(Oc2ccc3c(O)c(NC(=O)c4ccc(O)c(CC=C(C)C)c4)c(=O)oc3c2C)OC1(C)C has an IC50 (second compound 0.0316 µM) of 113 nM, an IC50 (second compound 0.1 µM) of 84.4 nM and an IC50 (second compound 0.316 µM) of 106 nM. For the same compound, the IC50 (second compound 1 µM) was 107 nM, the IC50 (second compound 3.16 µM) was 96.7 nM and the IC50 (second compound 10 µM) was 87.8 nM. The viability, T/C [1] was 94.3%, the viability, T/C [2] was 54.2% and the viability, T/C [3] was 14.5%. It also gave a viability, T/C [4] of 8.78%, a viability, T/C [5] of 6.63% and a viability, T/C [6] of 3.87%. It also gave a viability, T/C [7] of 84.8%, a viability, T/C [8] of 44.1% and a viability, T/C [9] of 13.4%. For the same compound, the viability, T/C [10] was 9.17%, the viability, T/C [11] was 6.55% and the viability, T/C [12] was 4.3%. The viability, T/C [13] was 99.6%, the viability, T/C [14] was 52% and the viability, T/C [15] was 18.9%. For the same compound, the viability, T/C [16] was 10.2%, the viability, T/C [17] was 8.4% and the viability, T/C [18] was 3.49%. The viability, T/C [19] was 109%, the viability, T/C [20] was 52.2% and the viability, T/C [21] was 12.7%. For the same compound, the viability, T/C [22] was 8.94%, the viability, T/C [23] was 7.59% and the viability, T/C [24] was 4.06%. The viability, T/C [25] was 112%, the viability, T/C [26] was 48.2% and the viability, T/C [27] was 14.7%. For the same compound, the viability, T/C [28] was 8.35%, the viability, T/C [29] was 7.58% and the viability, T/C [30] was 3.81%. For the same compound, the viability, T/C [31] was 112%, the viability, T/C [32] was 42% and the viability, T/C [33] was 15.8%. For the same compound, the viability, T/C [34] was 8.17%, the viability, T/C [35] was 7.6% and the viability, T/C [36] was 4.01%.
For CCc1cc2c(N3CCc4c(cc(Cn5ccnc5)cc4-c4cn(C)nc4C(F)(F)F)C3=O)cc(C)nc2c(OC)n1 + COC1C(OC(N)=O)C(O)C(Oc2ccc3c(O)c(NC(=O)c4ccc(O)c(CC=C(C)C)c4)c(=O)oc3c2C)OC1(C)C, the IC50 (second compound 0.0316 µM) was 2800 nM, the IC50 (second compound 0.1 µM) was 1450 nM and the IC50 (second compound 0.316 µM) was 1640 nM. For the same compound, the IC50 (second compound 1 µM) was 1750 nM, the IC50 (second compound 3.16 µM) was 2120 nM and the IC50 (second compound 10 µM) was 1220 nM. For the same compound, the viability, T/C [1] was 89.1%, the viability, T/C [2] was 78.2% and the viability, T/C [3] was 75.6%. The viability, T/C [4] was 71.5%, the viability, T/C [5] was 45.7% and the viability, T/C [6] was 25.3%. The viability, T/C [7] was 105%, the viability, T/C [8] was 80% and the viability, T/C [9] was 65.4%. It also gave a viability, T/C [10] of 58.9%, a viability, T/C [11] of 43.9% and a viability, T/C [12] of 24.5%. The viability, T/C [13] was 106%, the viability, T/C [14] was 90.2% and the viability, T/C [15] was 67.8%. The viability, T/C [16] was 63%, the viability, T/C [17] was 39.6% and the viability, T/C [18] was 23.5%. The viability, T/C [19] was 114%, the viability, T/C [20] was 79.6% and the viability, T/C [21] was 76.3%. For the same compound, the viability, T/C [22] was 63.3%, the viability, T/C [23] was 41.1% and the viability, T/C [24] was 25.9%. The viability, T/C [25] was 91.2%, the viability, T/C [26] was 86% and the viability, T/C [27] was 75.4%. For the same compound, the viability, T/C [28] was 62%, the viability, T/C [29] was 43.7% and the viability, T/C [30] was 25.4%. The viability, T/C [31] was 83.2%, the viability, T/C [32] was 73.8% and the viability, T/C [33] was 62.7%. The viability, T/C [34] was 56.6%, the viability, T/C [35] was 35.8% and the viability, T/C [36] was 22.1%.
COc1cccc2c1C(=O)c1c(O)c3c(c(O)c1C2=O)CC(O)(C(=O)CO)CC3OC1CC(N)C(O)C(C)O1 (stereo not drawn) + Cc1cccc(N(C)C(=O)C2C(O)CCN2c2nc(C)cc(C(F)(F)F)c2C#N)c1 showed an IC50 (second compound 0.0316 µM) of less than 31.6 nM, an IC50 (second compound 0.1 µM) of less than 31.6 nM and an IC50 (second compound 0.316 µM) of less than 31.6 nM. It also gave an IC50 (second compound 1 µM) of less than 31.6 nM, an IC50 (second compound 3.16 µM) of less than 31.6 nM and an IC50 (second compound 10 µM) of less than 31.6 nM. It also gave a viability, T/C [1] of 16.1%, a viability, T/C [2] of 10.2% and a viability, T/C [3] of 2.55%. For the same compound, the viability, T/C [4] was 0.3%, the viability, T/C [5] was 0.66% and the viability, T/C [6] was 2.13%. For the same compound, the viability, T/C [7] was 15.8%, the viability, T/C [8] was 10.1% and the viability, T/C [9] was 2.47%. It also gave a viability, T/C [10] of 0.26%, a viability, T/C [11] of 0.48% and a viability, T/C [12] of 2.11%. For the same compound, the viability, T/C [13] was 16.4%, the viability, T/C [14] was 9.49% and the viability, T/C [15] was 3.59%. The viability, T/C [16] was 0.33%, the viability, T/C [17] was 0.43% and the viability, T/C [18] was 1.8%. For the same compound, the viability, T/C [19] was 14.4%, the viability, T/C [20] was 9.02% and the viability, T/C [21] was 2.18%. It also gave a viability, T/C [22] of 0.24%, a viability, T/C [23] of 0.8% and a viability, T/C [24] of 1.14%. The viability, T/C [25] was 14.1%, the viability, T/C [26] was 8.42% and the viability, T/C [27] was 2.03%. For the same compound, the viability, T/C [28] was 0.25%, the viability, T/C [29] was 0.6% and the viability, T/C [30] was 2.24%. For the same compound, the viability, T/C [31] was 13.5%, the viability, T/C [32] was 9.55% and the viability, T/C [33] was 1.76%. The viability, T/C [34] was 0.25%, the viability, T/C [35] was 0.59% and the viability, T/C [36] was 1.9%.
